Laboratory results: ChEMBL document CHEMBL1201862, “PubChem BioAssay data set” (2004)
Structures can show the parent of a compound that is named as a salt.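 Five compound concentrations were applied to cells in 96-well plates for 48 hours; endpoints were derived by simple linear interpolation of the resulting dose-response curve. GI50 is the concentration that inhibits growth by half.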 The source made the active and inactive calls. Rule as the data show it: active = GI50 up to about 1.1 µM and inactive = higher. Where a SMILES comes first, the peptide text is derived from it. The star is where a group is joined. Boc = CC(C)(C)OC(=O)*

Tests used:
Experiment in all cases: inhibition of tumour cell growth, NCI panel, 48 h
A549 = test system: A549
COLO 205 = test system: COLO 205
EKVX = test system: EKVX
HCT-15 = test system: HCT-15
IGROV-1 = test system: IGROV-1
MDA-MB-231 = test system: MDA-MB-231
NCI-H23 = test system: NCI-H23
NCI-H460 = test system: NCI-H460
SF-295 = test system: SF-295
SF-539 = test system: SF-539
SK-MEL-28 = test system: SK-MEL-28
SK-MEL-2 = test system: SK-MEL-2
SK-MEL-5 = test system: SK-MEL-5
TK-10 = test system: TK-10
UO-31 = test system: UO-31
K562 = test system: K562
RPMI-8226 = test system: RPMI-8226
NCI-H522 = test system: NCI-H522

Row | SMILES | GI50 (A549) | GI50 (COLO 205) | GI50 (EKVX) | GI50 (HCT-15) [µM] | GI50 (IGROV-1) | GI50 (MDA-MB-231) | GI50 (NCI-H23) | GI50 (NCI-H460) | GI50 (SF-295) | GI50 (SF-539) | GI50 (SK-MEL-28) | GI50 (SK-MEL-2) | GI50 (SK-MEL-5) | GI50 (TK-10) | GI50 (UO-31) | GI50 (K562) | GI50 (RPMI-8226) | GI50 (NCI-H522)
1 | COC(=O)c1cn(CCCC(=O)O)nn1 | > 100 µM (inactive) | > 100 µM (inactive) | > 100 µM (inactive) | > 100 | > 100 µM (inactive) | > 100 µM (inactive) | > 100 µM (inactive) | > 100 µM (inactive) | > 100 µM (inactive) | > 100 µM (inactive) | > 100 µM (inactive) | > 100 µM (inactive) | > 100 µM (inactive) | > 100 µM (inactive) | > 100 µM (inactive) | – | – | –
2 | CCOC(=O)c1cn(C)c(=S)n2c1nc1ccccc12 | 62.1 µM (inactive) | > 100 µM (inactive) | > 100 µM (inactive) | 91 | 34.3 µM (inactive) | 91.8 µM (inactive) | 91.8 µM (inactive) | 45.6 µM (inactive) | 59.4 µM (inactive) | > 100 µM (inactive) | > 100 µM (inactive) | 40.2 µM (inactive) | 86.7 µM (inactive) | – | 4.73 µM (inactive) | > 100 µM (inactive) | 30.9 µM (inactive) | –
3 | COc1ccc2cc(Oc3ccc(Cl)cc3)c(=O)oc2c1 | > 100 µM (inactive) | – | > 100 µM (inactive) | > 100 | > 100 µM (inactive) | > 100 µM (inactive) | > 100 µM (inactive) | > 100 µM (inactive) | 60.5 µM (inactive) | > 100 µM (inactive) | > 100 µM (inactive) | – | > 100 µM (inactive) | > 100 µM (inactive) | > 100 µM (inactive) | > 100 µM (inactive) | > 100 µM (inactive) | > 100 µM (inactive)
4 | CCN(CC)c1ccc2cc(C(=O)Nc3ccccc3OC)c(=N)oc2c1 | 21.8 µM (inactive) | 24.8 µM (inactive) | 32.8 µM (inactive) | 19.7 | 7.55 µM (inactive) | – | 20.4 µM (inactive) | 5.16 µM (inactive) | 33.9 µM (inactive) | 46.6 µM (inactive) | 32.9 µM (inactive) | 59.7 µM (inactive) | 32.1 µM (inactive) | – | 0.321 µM (active) | 18.5 µM (inactive) | 15.9 µM (inactive) | 10.4 µM (inactive)
5 | O=C(CCO)OCCCCCC/C=C\CCCCCC/C=C\CCCCCCCCOC(=O)CCO | 15.9 µM (inactive) | > 100 µM (inactive) | 18.3 µM (inactive) | 15.6 | 17.2 µM (inactive) | 18.5 µM (inactive) | 17.9 µM (inactive) | 17.3 µM (inactive) | 18.3 µM (inactive) | > 100 µM (inactive) | 19.5 µM (inactive) | 17.3 µM (inactive) | > 100 µM (inactive) | 17.7 µM (inactive) | 18.6 µM (inactive) | 15.8 µM (inactive) | – | 16.5 µM (inactive)
6 | O=C(c1ccco1)N(Cc1cccnc1)C(=S)N(Cc1cccnc1)C(=O)c1ccco1 | 20.5 µM (inactive) | 4.02 µM (inactive) | 19.8 µM (inactive) | 13 | – | 8.75 µM (inactive) | 23.8 µM (inactive) | 22.6 µM (inactive) | 30.6 µM (inactive) | 11.1 µM (inactive) | 20.1 µM (inactive) | 12.5 µM (inactive) | 14.6 µM (inactive) | 10.8 µM (inactive) | 15 µM (inactive) | 4.84 µM (inactive) | – | 13.5 µM (inactive)
7 | CCOC(=O)C12OC(OCC)(CC1(OCC)OCC)C1(CC1)C2=O (centres undefined) | > 100 µM (inactive) | > 100 µM (inactive) | > 100 µM (inactive) | > 100 | > 100 µM (inactive) | > 100 µM (inactive) | > 100 µM (inactive) | > 100 µM (inactive) | > 100 µM (inactive) | > 100 µM (inactive) | > 100 µM (inactive) | > 100 µM (inactive) | > 100 µM (inactive) | > 100 µM (inactive) | > 100 µM (inactive) | > 100 µM (inactive) | – | –
8 | COc1cc(C2=C(C#N)C(N)OC3=C2COc2ccccc23)cc(OC)c1OC (centres undefined) | 17.5 µM (inactive) | > 100 µM (inactive) | 16.2 µM (inactive) | > 100 | 22.9 µM (inactive) | 15.2 µM (inactive) | 33.9 µM (inactive) | 19.4 µM (inactive) | – | 20.4 µM (inactive) | 24.8 µM (inactive) | 28.5 µM (inactive) | 25.2 µM (inactive) | 13.7 µM (inactive) | 4.15 µM (inactive) | 78 µM (inactive) | 46.6 µM (inactive) | –
9 | S=C1SC(=N\c2ccccc2)/C(=N/c2ccccc2)N1c1ccc2ccccc2c1 | – | > 100 µM (inactive) | – | 93.3 | > 100 µM (inactive) | > 100 µM (inactive) | > 100 µM (inactive) | > 10 µM (inactive) | > 100 µM (inactive) | – | > 100 µM (inactive) | > 100 µM (inactive) | 38.1 µM (inactive) | – | > 100 µM (inactive) | > 100 µM (inactive) | > 100 µM (inactive) | > 100 µM (inactive)
10 | O=C(c1ccco1)N(C(=O)N1CCC(c2ccccc2)CC1)c1ccccc1 | – | 39.7 µM (inactive) | 20.2 µM (inactive) | 42 | 25.9 µM (inactive) | > 100 µM (inactive) | 45.7 µM (inactive) | – | – | 74.5 µM (inactive) | 62.7 µM (inactive) | 42.5 µM (inactive) | 21.6 µM (inactive) | 55.3 µM (inactive) | 24.4 µM (inactive) | 29 µM (inactive) | 17.4 µM (inactive) | –
11 | CCN1C(NN)=NS(=O)(=O)c2ccccc21 | > 100 µM (inactive) | > 100 µM (inactive) | > 100 µM (inactive) | > 100 | > 100 µM (inactive) | > 100 µM (inactive) | > 100 µM (inactive) | > 100 µM (inactive) | > 100 µM (inactive) | > 100 µM (inactive) | > 100 µM (inactive) | > 100 µM (inactive) | > 100 µM (inactive) | > 100 µM (inactive) | > 100 µM (inactive) | > 100 µM (inactive) | – | > 100 µM (inactive)
12 | C=CCN(CCN(CC=C)S(=O)(=O)c1ccc(C)cc1)S(=O)(=O)c1ccc(C)cc1 | > 100 µM (inactive) | > 100 µM (inactive) | – | > 100 | – | > 100 µM (inactive) | > 100 µM (inactive) | > 100 µM (inactive) | > 100 µM (inactive) | – | > 100 µM (inactive) | – | > 100 µM (inactive) | > 100 µM (inactive) | > 100 µM (inactive) | > 100 µM (inactive) | – | > 100 µM (inactive)
13 | CCOC(=O)Cc1ccc(Nc2nc3cc(C(F)(F)F)ccc3nc2C(=O)OCC)cc1 | > 100 µM (inactive) | > 100 µM (inactive) | > 100 µM (inactive) | > 100 | > 100 µM (inactive) | – | 34.6 µM (inactive) | > 100 µM (inactive) | 63.2 µM (inactive) | 14.7 µM (inactive) | > 100 µM (inactive) | 61.1 µM (inactive) | > 100 µM (inactive) | 49.3 µM (inactive) | > 100 µM (inactive) | – | – | 50.8 µM (inactive)
14 | CCOC(=O)c1[nH]cc(C)c1-c1ccn(-c2ccccc2)c1 | 59.6 µM (inactive) | 51.9 µM (inactive) | 27 µM (inactive) | 54.5 | 14.9 µM (inactive) | – | 49.5 µM (inactive) | 38.6 µM (inactive) | 56.4 µM (inactive) | > 100 µM (inactive) | 96.2 µM (inactive) | 61.5 µM (inactive) | 21.7 µM (inactive) | 27.5 µM (inactive) | 25.8 µM (inactive) | 21.1 µM (inactive) | – | 20.1 µM (inactive)
15 | O=C1c2ccccc2C(=O)c2[nH]c(Cc3ccccc3F)nc21 | 52.7 µM (inactive) | 33.7 µM (inactive) | > 100 µM (inactive) | 45.2 | – | – | 27.7 µM (inactive) | 33.9 µM (inactive) | 59.2 µM (inactive) | 31.2 µM (inactive) | > 100 µM (inactive) | 60.1 µM (inactive) | – | 29.3 µM (inactive) | 52.5 µM (inactive) | > 100 µM (inactive) | 57.4 µM (inactive) | 21.3 µM (inactive)
16 | CCOC(=O)NC(Nc1ccc(S(=O)(=O)Nc2ccc(OC)nn2)cc1)(C(F)(F)F)C(F)(F)F | 35.3 µM (inactive) | 21.9 µM (inactive) | 37 µM (inactive) | 49.1 | 22.8 µM (inactive) | 18.8 µM (inactive) | 31.3 µM (inactive) | 41.6 µM (inactive) | 37 µM (inactive) | 20.6 µM (inactive) | 24.9 µM (inactive) | – | 17.8 µM (inactive) | 27.7 µM (inactive) | > 100 µM (inactive) | 32.2 µM (inactive) | 20.6 µM (inactive) | –
17 | CCOC(=O)C(CC(C)C)NC(=O)C(Cc1ccccc1)NC(=O)CNC(=O)OC(C)(C)C (stereo not drawn) (Boc-Gly-Phe-Leu-OEt; configuration not given here) | 18.7 µM (inactive) | – | 22.3 µM (inactive) | 18.4 | 21.6 µM (inactive) | – | – | 12.1 µM (inactive) | 34.8 µM (inactive) | 13.5 µM (inactive) | 16.6 µM (inactive) | 28.9 µM (inactive) | 20.8 µM (inactive) | 31 µM (inactive) | 45.8 µM (inactive) | 19 µM (inactive) | 20.9 µM (inactive) | 19.1 µM (inactive)
18 | c1ccc([C@H]2CN3CCSC3=N2)cc1 [LEVAMISOLE HYDROCHLORIDE] | > 100 µM (inactive) | > 100 µM (inactive) | > 100 µM (inactive) | > 100 | > 100 µM (inactive) | > 100 µM (inactive) | > 100 µM (inactive) | > 100 µM (inactive) | > 100 µM (inactive) | > 100 µM (inactive) | > 100 µM (inactive) | > 100 µM (inactive) | > 100 µM (inactive) | – | > 100 µM (inactive) | > 100 µM (inactive) | – | > 100 µM (inactive)
